According to paper PMC3081360 (Journal of medicinal chemistry, 2011):

Molecular target: brain NOP receptors (hypothalamus vs striatum) (Rattus norvegicus, UniProt P35370)
Assay: Ligand brain uptake in rat, ex vivo LC-MS/MS
Settings: 3 μg/kg i.v., non-anesthetized, 10 min stated for (S)-10a

Sequence of brain NOP receptors (hypothalamus vs striatum) (P35370 whole entry): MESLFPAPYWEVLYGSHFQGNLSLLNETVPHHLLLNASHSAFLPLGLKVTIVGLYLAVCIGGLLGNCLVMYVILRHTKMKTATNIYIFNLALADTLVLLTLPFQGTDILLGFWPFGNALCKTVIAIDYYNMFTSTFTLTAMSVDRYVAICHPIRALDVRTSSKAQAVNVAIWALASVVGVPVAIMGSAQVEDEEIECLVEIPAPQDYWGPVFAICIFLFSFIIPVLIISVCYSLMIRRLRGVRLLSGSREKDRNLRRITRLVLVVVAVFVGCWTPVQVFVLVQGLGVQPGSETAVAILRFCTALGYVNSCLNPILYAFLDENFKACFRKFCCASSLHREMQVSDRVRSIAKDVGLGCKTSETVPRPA

SMILES | brain uptake
CNC(=O)[C@@H](Cc1ccccc1F)CN1CCC2(CC1)OCCc1cc(F)sc12 [(S)-10c, (2S)-2-[(2-Fluorophenyl)methyl]-3-(2-fluorospiro[4,5-dihydrothieno[2,3-c]pyran-7,4'-piperidine]-1'-yl)-N-methyl-propanamide] | ~ 280 % SUV
CNC(=O)[C@@H](Cc1ccccc1Cl)CN1CCC2(CC1)OCCc1cc(F)sc12 [(S)-10b, (2S)-2-[(2-Chlorophenyl)methyl]-3-(2-fluorospiro[4,5-dihydrothieno[2,3-c]pyran-7,4'-piperidine]-1'-yl)-N-methyl-propanamide] | ~ 280 % SUV
CC(C)N(C)C(=O)[C@@H](Cc1ccccc1F)CN1CCC2(CC1)OCCc1cc(F)sc12 [(S)-10a, (2S)-2-[(2-Fluorophenyl)methyl]-3-(2-fluorospiro[4,5-dihydrothieno[2,3-c]pyran-7,4'-piperidine]-1'-yl)-N-isopropyl-N-methyl-propanamide] | 453 % SUV
